One series deals with Histone deacetylase 2 (Homo sapiens, UniProt Q92769). The series can be described thus: Inhibition of C-terminal FLAG-tagged human full length recombinant HDAC2 (1 to 488 residues) expressed in Sf9 cells using Boc-Lys(acetyI)-AMC as substrate preincubated with enzyme for 1 hr followed by substrate addition and measured after 30 mins by fluorescence based analysis.
The target in series [1] is Class 1 histone deacetylase (Homo sapiens) (UniProt Q13547+O15379+Q92769+Q9BY41). The series can be described thus: Irreversible inhibition of class 1 HDAC in human A549 cells assessed as acetyl histone H4 level at 0.4 uM incubated for 5 hrs followed by drug wash-out for 6 hrs by western blot analysis relative to control. The series is classed as cell-based. For orientation: Immunoblotting shows a protein as a band on a membrane.

For series [2], the target named is T1, Protein deacetylase HDAC6 (Homo sapiens) (UniProt Q9UBN7).
T1 sequence (whole entry): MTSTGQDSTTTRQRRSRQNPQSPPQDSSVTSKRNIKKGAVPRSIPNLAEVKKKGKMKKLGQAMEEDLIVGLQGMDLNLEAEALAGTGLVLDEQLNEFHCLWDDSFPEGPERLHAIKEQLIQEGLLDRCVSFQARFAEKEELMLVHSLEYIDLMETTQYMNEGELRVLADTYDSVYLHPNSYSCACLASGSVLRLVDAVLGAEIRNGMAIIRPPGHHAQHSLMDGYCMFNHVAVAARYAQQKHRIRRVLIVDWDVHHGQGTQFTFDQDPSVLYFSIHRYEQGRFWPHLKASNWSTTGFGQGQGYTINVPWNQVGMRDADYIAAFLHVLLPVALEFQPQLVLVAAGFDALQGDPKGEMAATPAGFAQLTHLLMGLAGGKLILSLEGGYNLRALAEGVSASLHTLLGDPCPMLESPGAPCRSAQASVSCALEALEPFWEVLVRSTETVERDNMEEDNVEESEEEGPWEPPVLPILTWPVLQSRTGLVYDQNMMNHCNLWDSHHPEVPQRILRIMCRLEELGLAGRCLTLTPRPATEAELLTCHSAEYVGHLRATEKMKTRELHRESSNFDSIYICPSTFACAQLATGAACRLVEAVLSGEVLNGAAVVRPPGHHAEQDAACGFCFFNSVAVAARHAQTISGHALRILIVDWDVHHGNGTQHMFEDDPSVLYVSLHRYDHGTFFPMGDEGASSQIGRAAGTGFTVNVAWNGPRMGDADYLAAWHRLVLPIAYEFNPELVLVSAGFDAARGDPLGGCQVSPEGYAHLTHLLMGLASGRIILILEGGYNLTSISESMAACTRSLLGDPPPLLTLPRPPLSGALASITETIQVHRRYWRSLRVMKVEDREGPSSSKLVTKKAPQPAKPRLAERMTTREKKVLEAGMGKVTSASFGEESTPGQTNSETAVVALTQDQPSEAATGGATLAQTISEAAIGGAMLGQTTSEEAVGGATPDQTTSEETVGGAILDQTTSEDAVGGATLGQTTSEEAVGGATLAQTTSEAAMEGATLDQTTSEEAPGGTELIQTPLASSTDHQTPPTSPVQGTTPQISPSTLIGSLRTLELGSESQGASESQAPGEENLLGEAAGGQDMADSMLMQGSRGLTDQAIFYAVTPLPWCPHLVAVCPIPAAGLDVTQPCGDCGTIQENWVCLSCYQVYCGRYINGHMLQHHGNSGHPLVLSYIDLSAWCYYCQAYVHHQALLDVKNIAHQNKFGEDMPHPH
Briefly: Irreversible inhibition of HDAC6 in human A549 cells assessed as acetyl alpha-tubulin level at 0.4 uM incubated for 5 hrs followed by drug wash-out for 24 hrs by western blot analysis relative to control. It is filed as cell-based.

The next series concerns the target Histone deacetylase 1 (Homo sapiens, UniProt Q13547). Briefly: Inhibition of C-terminal His/FLAG-tagged human full length recombinant HDAC1 (1 to 482 residues) expressed in Sf9 cells using Boc-Lys(acetyI)-AMC as substrate preincubated with enzyme for 1 hr followed by substrate addition and measured after 30 mins by fluorescence based analysis.
A further series addresses Histone deacetylase 5 (Homo sapiens, UniProt Q9UQL6). Briefly: Inhibition of C-terminal His-tagged human recombinant HDAC5 catalytic domain (656 to 1122 residues) expressed in baculovirus-infected Sf9 cells using Boc-Lys(trifluoroacety1)-AMC as substrate preincubated with enzyme for 1 hr followed by substrate addition and measured after 30 mins by fluorescence based analysis.

In series [3] the test system is RPMI-8226. Briefly: Induction of apoptosis in human RPMI-8226 cells assessed as proportion of early apoptotic cells at 0.1 uM incubated for 24 hrs by AnnexinV-FITC/PI staining based flow cytometry (reference value: 10.63%). The series is classed as functional, cell-based. In general terms: A flow cytometer gives signals particle by particle.
Series [4] deals with RPMI-8226. The series can be described thus: Induction of apoptosis in human RPMI-8226 cells assessed as proportion of viable cells at 0.5 uM incubated for 24 hrs by AnnexinV-FITC/PI staining based flow cytometry (reference value: 84.71%). The series is classed as functional, cell-based.
The subject of series [5] is RPMI-8226. Briefly: Induction of apoptosis in human RPMI-8226 cells assessed as proportion of late apoptotic cells at 0.5 uM incubated for 24 hrs by AnnexinV-FITC/PI staining based flow cytometry (reference value: 4.18%). It is filed as functional, cell-based.
Series [6] deals with RPMI-8226. The series can be described thus: Induction of apoptosis in human RPMI-8226 cells assessed as proportion of necrotic cells at 0.5 uM incubated for 24 hrs by AnnexinV-FITC/PI staining based flow cytometry (reference value: 0.49%). It is filed as functional, cell-based.
For series [7], the system named is RPMI-8226. The series can be described thus: Induction of cell cycle arrest in human RPMI-8226 cells assessed as proportion of cells at S phase at 0.1 uM incubated for 24 hrs by PI staining based flow cytometry (reference value: 46.7%). It is filed as functional.
Series [8] can be described thus: Metabolic stability of the compound in mouse liver microsomes assessed as parent compound remaining measured after 60 mins in presence of NADPH by LC-MS/MS analysis. It is filed as ADME, Microsome. Particulars: read-out: Stability.

pIC50: −log10 of the molar value. Calls of active or inactive are those of the source. No cut-off for these calls is given here.

Experimental findings from ChEMBL document CHEMBL5346971, “Discovery of the First Irreversible HDAC6 Isoform Selective Inhibitor with Potent Anti-Multiple Myeloma Activity” (J Med Chem, 2023) are described below.

Sequence of Histone deacetylase 2 (Q92769 whole entry, the tested form may be a part): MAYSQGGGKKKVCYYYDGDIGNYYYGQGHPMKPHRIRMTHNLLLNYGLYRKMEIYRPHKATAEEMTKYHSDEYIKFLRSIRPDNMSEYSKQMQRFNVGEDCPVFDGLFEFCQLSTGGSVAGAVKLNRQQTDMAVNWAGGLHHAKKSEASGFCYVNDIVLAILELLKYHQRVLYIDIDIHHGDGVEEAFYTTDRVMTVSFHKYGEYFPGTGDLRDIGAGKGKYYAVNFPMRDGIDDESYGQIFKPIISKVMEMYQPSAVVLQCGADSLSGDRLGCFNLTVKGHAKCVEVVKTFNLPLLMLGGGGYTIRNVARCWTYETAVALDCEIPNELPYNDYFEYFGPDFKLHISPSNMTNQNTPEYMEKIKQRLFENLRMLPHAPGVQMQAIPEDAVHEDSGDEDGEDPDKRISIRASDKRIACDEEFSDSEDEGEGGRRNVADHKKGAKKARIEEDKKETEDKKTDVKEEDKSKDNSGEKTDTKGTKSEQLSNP
Sequence of Class 1 histone deacetylase (Homo sapiens) (O15379 whole entry, looked up): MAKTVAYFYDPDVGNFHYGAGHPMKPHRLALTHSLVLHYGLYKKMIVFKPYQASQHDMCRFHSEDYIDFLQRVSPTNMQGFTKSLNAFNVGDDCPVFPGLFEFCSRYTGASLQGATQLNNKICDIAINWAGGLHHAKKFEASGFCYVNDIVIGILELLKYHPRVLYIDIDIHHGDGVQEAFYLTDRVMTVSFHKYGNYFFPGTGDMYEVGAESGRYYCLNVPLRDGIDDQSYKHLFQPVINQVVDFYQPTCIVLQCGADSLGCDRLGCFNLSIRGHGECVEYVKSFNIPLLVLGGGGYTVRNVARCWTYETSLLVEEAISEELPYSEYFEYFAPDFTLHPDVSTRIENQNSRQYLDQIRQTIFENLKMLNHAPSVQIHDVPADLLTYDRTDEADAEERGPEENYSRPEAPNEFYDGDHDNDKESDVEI
Sequence of Class 1 histone deacetylase (Homo sapiens) (Q13547 whole entry, looked up): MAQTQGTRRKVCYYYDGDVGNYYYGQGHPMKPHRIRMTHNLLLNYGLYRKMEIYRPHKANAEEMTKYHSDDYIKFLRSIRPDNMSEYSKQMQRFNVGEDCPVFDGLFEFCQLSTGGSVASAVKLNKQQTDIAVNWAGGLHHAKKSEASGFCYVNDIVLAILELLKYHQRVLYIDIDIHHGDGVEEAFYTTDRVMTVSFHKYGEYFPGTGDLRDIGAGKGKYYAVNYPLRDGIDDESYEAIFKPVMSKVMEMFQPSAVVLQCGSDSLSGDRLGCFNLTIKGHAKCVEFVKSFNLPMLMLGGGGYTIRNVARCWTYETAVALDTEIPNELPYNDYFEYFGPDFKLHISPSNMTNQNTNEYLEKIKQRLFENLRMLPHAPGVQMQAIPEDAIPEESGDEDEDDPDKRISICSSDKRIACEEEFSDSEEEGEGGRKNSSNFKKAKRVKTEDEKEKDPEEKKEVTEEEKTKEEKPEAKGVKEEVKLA
Sequence of Class 1 histone deacetylase (Homo sapiens) (Q92769 whole entry, looked up): as the sequence (Q92769 whole entry, the tested form may be a part) above
Sequence of Class 1 histone deacetylase (Homo sapiens) (Q9BY41 whole entry, looked up): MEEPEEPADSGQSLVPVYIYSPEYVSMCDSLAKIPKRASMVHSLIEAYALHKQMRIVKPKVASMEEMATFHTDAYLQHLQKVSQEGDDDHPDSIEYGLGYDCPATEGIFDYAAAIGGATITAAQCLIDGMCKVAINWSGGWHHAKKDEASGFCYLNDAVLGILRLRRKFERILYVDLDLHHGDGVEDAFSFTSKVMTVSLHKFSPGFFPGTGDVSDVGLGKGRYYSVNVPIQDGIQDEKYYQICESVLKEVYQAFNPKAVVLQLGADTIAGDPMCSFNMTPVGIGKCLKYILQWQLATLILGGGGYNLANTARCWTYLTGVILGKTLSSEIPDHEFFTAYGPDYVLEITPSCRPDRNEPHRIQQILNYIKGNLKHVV
Sequence of Histone deacetylase 1 (Q13547 whole entry, the tested form may be a part): as the sequence (Q13547 whole entry, looked up) above
Sequence of Histone deacetylase 5 (Q9UQL6 whole entry, the tested form may be a part): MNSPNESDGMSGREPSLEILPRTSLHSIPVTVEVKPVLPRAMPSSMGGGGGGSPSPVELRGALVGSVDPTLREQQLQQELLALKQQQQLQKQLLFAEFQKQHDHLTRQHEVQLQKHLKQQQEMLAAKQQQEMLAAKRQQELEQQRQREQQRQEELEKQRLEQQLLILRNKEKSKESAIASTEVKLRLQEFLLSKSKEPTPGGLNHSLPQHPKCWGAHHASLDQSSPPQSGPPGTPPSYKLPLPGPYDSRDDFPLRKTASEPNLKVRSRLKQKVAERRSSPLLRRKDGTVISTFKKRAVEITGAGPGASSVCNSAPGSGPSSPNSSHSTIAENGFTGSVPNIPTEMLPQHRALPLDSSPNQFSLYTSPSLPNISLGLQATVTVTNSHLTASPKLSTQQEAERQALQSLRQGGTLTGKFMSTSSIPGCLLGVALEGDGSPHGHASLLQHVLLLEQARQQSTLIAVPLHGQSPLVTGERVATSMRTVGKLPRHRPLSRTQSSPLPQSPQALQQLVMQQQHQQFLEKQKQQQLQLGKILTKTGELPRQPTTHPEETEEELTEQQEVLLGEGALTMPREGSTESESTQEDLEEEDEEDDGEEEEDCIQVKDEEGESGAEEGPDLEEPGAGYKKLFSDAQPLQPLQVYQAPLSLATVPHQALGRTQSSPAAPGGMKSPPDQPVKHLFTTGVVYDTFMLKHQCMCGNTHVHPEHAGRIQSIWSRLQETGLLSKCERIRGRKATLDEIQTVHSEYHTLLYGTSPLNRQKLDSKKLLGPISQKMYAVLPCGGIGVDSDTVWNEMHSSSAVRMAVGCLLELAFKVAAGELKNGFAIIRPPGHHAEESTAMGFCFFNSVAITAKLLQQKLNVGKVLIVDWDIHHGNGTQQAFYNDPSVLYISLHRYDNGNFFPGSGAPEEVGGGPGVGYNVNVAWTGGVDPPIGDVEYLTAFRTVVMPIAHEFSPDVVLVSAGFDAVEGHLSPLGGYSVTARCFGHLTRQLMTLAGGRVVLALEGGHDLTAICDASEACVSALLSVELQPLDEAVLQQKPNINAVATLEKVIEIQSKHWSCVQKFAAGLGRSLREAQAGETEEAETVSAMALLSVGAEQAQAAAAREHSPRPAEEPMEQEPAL

Regarding `O=C(NO)c1ccc(COc2no[n+]([O-])c2S(=O)(=O)c2ccccc2)cc1`, the pIC50 at Histone deacetylase 2 was 5.82; at Histone deacetylase 1 it was 5.32; on Histone deacetylase 5, < 4.40. In addition, the fold change (FC) in [1] was 1; in series [2] it was 4.3. Further, the result with RPMI-8226 [3], in the series with RPMI-8226 [4], in the series with RPMI-8226 [5] and in the series on RPMI-8226 [6] was Active. Also, the Activity in the series on RPMI-8226 [7] came to 49.8%. Further, the remaining at 1 h in [8] is < 0.35%.

A word on the pIC50: it is −log10 of the IC50, conventionally taken in molar units.
